Results from patent EP3414229B1, “QUINOLINONE LYSYL OXIDASE-LIKE 2 INHIBITORS AND USES THEREOF” (Pharmakea, Inc., priority 2016, dated 2017).

What was measured:
human LOXL2 = biological target: T1, human LOXL2 (Homo sapiens, UniProt Q9Y4K0); assay: Human LOXL2 Amine Oxidase Activity Assay (Amplex Red fluorescence); format: biochemical; settings: concentrated conditioned media from CHO cells stably expressing human LOXL2; 2h at 37 °C with test compound; DAP substrate
T1 construct: expressed in transfected cells; 10-20X concentrated conditioned media used as the enzyme source
T1 sequence (Q9Y4K0 26-774): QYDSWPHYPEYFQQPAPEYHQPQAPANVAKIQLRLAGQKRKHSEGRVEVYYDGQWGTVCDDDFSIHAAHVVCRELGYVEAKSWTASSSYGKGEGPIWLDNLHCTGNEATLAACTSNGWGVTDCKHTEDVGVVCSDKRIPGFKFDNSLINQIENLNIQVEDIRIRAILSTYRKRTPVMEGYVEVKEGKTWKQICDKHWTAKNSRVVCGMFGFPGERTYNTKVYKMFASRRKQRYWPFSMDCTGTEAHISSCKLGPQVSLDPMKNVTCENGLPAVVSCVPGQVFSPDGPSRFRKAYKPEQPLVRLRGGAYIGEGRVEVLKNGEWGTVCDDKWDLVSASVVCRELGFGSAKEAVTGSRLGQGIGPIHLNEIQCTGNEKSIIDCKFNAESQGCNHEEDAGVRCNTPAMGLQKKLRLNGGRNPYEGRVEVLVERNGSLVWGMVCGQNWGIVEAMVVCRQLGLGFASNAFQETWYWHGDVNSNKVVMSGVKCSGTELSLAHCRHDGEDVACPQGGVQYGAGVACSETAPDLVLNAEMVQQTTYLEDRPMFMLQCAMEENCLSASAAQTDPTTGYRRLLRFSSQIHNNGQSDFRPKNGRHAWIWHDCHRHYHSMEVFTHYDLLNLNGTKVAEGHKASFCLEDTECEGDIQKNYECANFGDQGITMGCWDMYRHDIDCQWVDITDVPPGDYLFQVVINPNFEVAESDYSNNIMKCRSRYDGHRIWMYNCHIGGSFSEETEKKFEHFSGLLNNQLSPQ
Experimental: Example B-1: Human LOXL2 Amine Oxidase Activity Assay
LOXL2 amine oxidase activity is evaluated by measuring Amplex Red fluorescence using 10-20X concentrated conditioned media from CHO cells stably expressing human LOXL2. To assay for amine oxidase activity, 10 µL of the concentrated conditioned media is incubated with 2 µL of test compound in DMSO and 73 µL Assay Buffer (50 mM Borate Buffer, pH8) for 2h at 37 °C. After the 2h incubation, 5 ul of 10 mM 1,5-Diaminopentane (DAP) diluted in Assay Buffer and 10 µl of Amplex Red Mix (8.5 µl Assay Buffer + 0.5 µl of 10 mM Amplex Red + 1 µl of 500 U/ml Horseradish Peroxidase) are added and the plate mixed and immediately placed on the FlexStaion for fluorescence measurements. Fluorescence is read in kinetic mode every 2 min for 1 hour at excitation = 544 and emission = 590. The amine oxidase activity is calculated from the slope of the linear portion of the curve.

C57B1/6 male mice = assay: Mouse Oropharyngeal Bleomycin Model of Lung Fibrosis; format: in vivo; settings: dosed prophylactically at 60 mg/kg p.o.
Experimental: Example B-3: Mouse Oropharyngeal Bleomycin Model of Lung Fibrosis
Lung fibrosis is induced in C57B1/6 male mice by administering bleomycin (0.1-4 U/kg) via oropharyngeal instillation. Mice are either pretreated with vehicle or test compound (1 day to 1 hour) orally, intraperitoneally, intravenously or subcutaneously before bleomycin installation (prophylactic dosing) or 7-14 days post bleomycin instillation (therapeutic dosing). The route and frequency of dosing are based on previously determined pharmacokinetic properties for the LOXL2 inhibitor in mouse. After bleomycin instillation animals are monitored daily for weight loss and clinical signs for 14-28 days prior to sacrifice. […] For histological examination, lung slices are stained with Masson's trichrome or Picro-Sirius red to measure cross-linked collagen as an indicator of fibrosis and an Ashcroft score of lung fibrotic and inflammatory damage determined. In addition, immunohistochemistry of fibrotic proteins such as a-smooth muscle actin can be recorded. […] After the acid hydrolysis, 25-100 µl of the supernatant is dried down, resuspended in 25 µl water and the hydroxyproline content determined by the addition of 0.5 ml Chloramine T solution (140 mg Chloramine T in 6.5 ml ddH20 + 1 ml n-propanol + 2.5 ml 1M sodium acetate) and incubation at room temperature for 20 min. […]

| SMILES | IC50 (human LOXL2) [nM] | efficacy in bleomycin model of lung fibrosis (C57B1/6 male mice) |
| --- | --- | --- |
| COc1ccc(-c2ccc3[nH]c(CN)cc(=O)c3c2)cc1F [Compound 1-72, 2-(Aminomethyl)-6-(3-fluoro-4-methoxyphenyl)quinolin-4(1H)-one] | < 300 |  |
| NCc1cc(=O)c2cc(-c3cnc(C(F)(F)F)nc3)ccc2[nH]1 [Compound 1-77, 2-(Aminomethyl)-6-(2-(trifluoromethyl)pyrimidin-5-yl)quinolin-4(1H)-one] | < 300 |  |
| NCc1cc(=O)c2cc(C#Cc3ccccc3)ccc2[nH]1 [Compound 1-7, 2-(Aminomethyl)-6-(phenylethynyl)quinolin-4(1H)-one] | < 300 |  |
| Cc1ccc(=O)n(-c2ccc3[nH]c(CN)cc(=O)c3c2)c1 [Compound 1-46, 2-(Aminomethyl)-6-(5-methyl-2-oxopyridin-1(2H)-yl)quinolin-4(1H)-one] | < 300 |  |
| NCc1cc(=O)c2cc(Oc3ccccc3)ccc2[nH]1 [Compound 1-21, 2-(Aminomethyl)-6-phenoxyquinolin-4(1H)-one] | < 300 |  |
| NCc1cc(=O)c2cc(-c3cccc4cccnc34)ccc2[nH]1 [Compound 1-65, 2-(Aminomethyl)-[6,8'-biquinolin]-4(1H)-one] | < 300 |  |
| Cn1c(CN)cc(=O)c2ccccc21 [Compound 1-2, 2-(Aminomethyl)-1-methylquinolin-4(1H)-one] | > 1000 |  |
| NCc1cc(=O)c2cc(-c3ccc(F)cc3)ccc2[nH]1 [Compound 1-11, 2-(Aminomethyl)-6-(4-fluorophenyl)quinolin-4(1H)-one] | < 300 |  |
| NCc1cc(=O)c2ccccc2[nH]1 [Compound 1-1, 2-(Aminomethyl)quinolin-4(1H)-one] | < 300 |  |
| C#Cc1ccc2[nH]c(CN)cc(=O)c2c1 [Compound 1-4, 2-(Aminomethyl)-6-ethynylquinolin-4(1H)-one] | < 300 |  |
| NCc1cc(=O)c2cc(-c3ccccc3)ccc2[nH]1 [Compound 1-5, 2-(Aminomethyl)-6-phenylquinolin-4(1H)-one] | < 300 |  |
| NCc1cc(=O)c2cc(-c3ccc(F)cc3Cl)ccc2[nH]1 [Compound 1-70, 2-(Aminomethyl)-6-(2-chloro-4-fluorophenyl)quinolin-4(1H)-one] | < 300 |  |
| NCc1cc(=O)c2cc(-c3cncnc3)ccc2[nH]1 [Compound 1-40, 2-(Aminomethyl)-6-(pyrimidin-5-yl)quinolin-4(1H)-one] | < 300 |  |
| COCCOc1ccc2[nH]c(CN)cc(=O)c2c1 [Compound 1-78, 2-(Aminomethyl)-6-(2-methoxyethoxy)quinolin-4(1H)-one] | < 300 |  |
| NCc1cc(=O)c2cc(-c3cncc(OCc4ccccc4)c3)ccc2[nH]1 [Compound 1-66, 2-(Aminomethyl)-6-(5-(benzyloxy)pyridin-3-yl)quinolin-4(1H)-one] | < 300 |  |
| NCc1cc(=O)c2cc(-c3ccc(C(F)(F)F)nc3)ccc2[nH]1 [Compound 1-74, 2-(Aminomethyl)-6-(6-(trifluoromethyl)pyridin-3-yl)quinolin-4(1H)-one] | < 300 |  |
| Cn1cc(-c2ccc3[nH]c(CN)cc(=O)c3c2)cn1 [Compound 1-47, 2-(Aminomethyl)-6-(1-methyl-1H-pyrazol-4-yl)quinolin-4(1H)-one] | < 300 |  |
| COc1ccc2[nH]c(CN)cc(=O)c2c1 [Compound 1-9, 2-(Aminomethyl)-6-methoxyquinolin-4(1H)-one] | < 300 |  |
| NCc1cc(=O)c2cc(Br)ccc2[nH]1 [Compound 1-3, 2-(Aminomethyl)-6-bromoquinolin-4(1H)-one] | < 300 | efficacious |
| NCc1cc(=O)c2cc(-n3cccn3)ccc2[nH]1 [Compound 1-8, 2-(Aminomethyl)-6-(1H-pyrazol-1-yl)quinolin-4(1H)-one] | < 300 |  |
| NCc1cc(=O)c2cc(-c3cn(-c4ccccc4)nn3)ccc2[nH]1 [Compound 1-6, 2-(Aminomethyl)-6-(1-phenyl-1H-1,2,3-triazol-4-yl)quinolin-4(1H)-one] | < 300 |  |
